Test results reported in patent publication US9999601B2, “Composition and method for inhibition of nerve transmission” (NEUROQUEST INC., priority 2007, dated 2018).
Entries after “also recorded” stand apart in the source; their conditions may differ.

Assays:
[1] = target: delayed rectifier current (Ikv), specifically Ikv 1.5 subtype (Homo sapiens, UniProt P22460); assay: Whole cell patch clamp recordings (K+ channels); format: cell-based; conditions: for inhibition of delayed rectifying potassium channels (in words): 10 ppm (10 mcmol or 10 ppm); for percent inhibition of the delayed rectifier potassium current: at a concentration of Geranium oil that gave 40% inhibition; for inhibition of delayed rectifying potassium channels, comparison in words: concentration not given
Procedure: Whole cell patch clamp recordings (Axopatch 200B) were made using borosilicate patch pipettes of resistance 3-8 MΩ with an intracellular solution utilizing potassium chloride as the current carrier. Current clamp recording were conducted holding the membrane potential at −60 mV to characterize the firing property of the cells. Voltage clamp was performed to investigate the delayed rectifier current (Ikv), specifically Ikv 1.5 subtype. Statistical significance was assessed using ANOVA followed by Duncan's multiple-range test with P<0.05 taken as indicating significance. […] A synthetic blend of geranium oil containing proportions of geraniol and citronellol similar to natural geranium oil, but with other components removed, was compared to the following ratios of geraniol:citronellol; 2:8, 3:7, 4:6 and geranium oil. The synthetic blend of geranium oil gave a 50% inhibition of the delayed rectifying potassium channel current compared to a 40% inhibition for natural geranium oil.

[2] = tested on: mouse hippocampal brain slice neurons (cortical neuron); assay: Patch clamp electrophysiological studies of mouse hippocampal slices; format: cell-based; conditions: for inhibition of nerve transmission (in words): animal cortical nerve cells and dorsal root ganglion cells; for membrane currents, current-voltage relation (in words): bath-applied, 10 mV steps from −110 to −20 mV, FIG. 1, FIG. 2A-C
Procedure: Studies were conducted on mouse hippocampal brain slice preparations. In terms of the slice preparations, […] coronal brain slices were prepared from animals housed in a 12 hour light (ZT 0-12):12 hour dark (ZT 12-24) environment. Animals were anesthetized with isoflurane, decapitated, the brain rapidly removed and placed in ice cold, oxygenated (95% 02:5% C02), bicarbonate-buffered artificial cerebral spinal fluid (ACSF). A 1 cm^2 block of brain tissue containing the hippocampi was glued to a cutting surface and coronal slices were prepared using a Leica VT1000S microtome (Leica Microsystems). All slices were left to equilibrate for approximately one hour prior to the transfer to a recording chamber. Once transferred to the chamber, slices were continuously superfused with oxygenated ACSF at a rate of 3 ml/min @30° C. and recordings are generally made for the next 6-12 hours. Patch microelectrodes (5-8MΩ) made from borosilicate glass (Garner Glass Co.) and filled with K^+based internal patch solution composed of: (in mM) 120 K-acetate, 40 HEPES, 10 EGTA, 6 MgCl2, nystatin (450 μg/ml) or gramicidin B (5 μg/ml) and pluronic acid F127.
The perforated patch recording technique and will be used (Korn & Horn, 1989) and viable Hippocampal neurons were visually targeted using Infrared Differential Interference Contrast (IR-DIC) microscopy using a Leica DM LFSA scope. […] Recordings were made from 3 different patch rigs equipped with either […] patch clamp amplifiers interfaced via a Digidata 1322A to a PC computer or on, in terms of the studies performed on dissociated DRG neurons, a Zeiss Axoscop 200 inverted microscope equipped with an Axopatch 200B/Digidata 1322A using Pclamp 9.0 and Axoscope 9 software.
Test compounds were bath-applied by superfusion to examine for changes in excitability and/or attenuation of ion channels and the effects of compounds on evoked synaptic responses. Stimulating electrodes (concentric or bipolar) were placed within the slices and in accordance with the well known fiber tract pathways of passage for the
Superimposed responses to a series of 10 mV steps (250 ms) ranged from −110 to −20 mV are shown, (A) in control condition, (B) in presence of geraniol, and (C) after washout of the drug.
Typical response of a cortical neuron following a depolarizing current pulse of 0.4 nA is shown in FIGS. 2D, 2E and 2F, (D) in control condition, (E) in presence of geraniol, and (F) after recovery.
Mean current-voltage plots for 6 cortical neurons are plotted in FIG. 1.
Samples 1, 2 and 6 are examples of naturally-derived geranium oils; sample 3 is the synthetic composition as set out in Table 1, sample 4 is pure geraniol, sample 5 is pure citronellol and sample 4+5 is 50:50 (by volume) combination of geraniol and citronellol. Net current represents the difference between current measured in control condition and in presence of tested compound, in response to the same voltage step.

post-herpetic neuralgia = assay: Human screening of synthetic geranium oil and geraniol in neuropathic pain (post-herpetic neuralgia); format: in vivo; conditions: topical pure geraniol, human neuropathic pain sufferers
Procedure: A synthetic blend of geranium oil (Table 1) was also tested in a panel of human neuropathic pain sufferers known to respond to naturally derived geranium oil. The geranium oil was topically applied in therapeutically effective amounts to areas of the human body affected with symptoms of neuropathic pain. Dosage amounts depended on the size of the patient's affected areas. […] Once administered, a typical positive response is a significant reduction in pain, often in minutes. A significant number of patients in the panel of neuropathic pain sufferers preferred the pain relieving effects of the synthetic blend of geranium oil, with known purified constituents, over the natural geranium oil.
Since natural geranium oil relieves neuropathic pain and inhibits the delayed rectifying potassium channel, and since synthetic geranium oil, geraniol, and citronellol all inhibit the delayed rectifying potassium channel, synthetic geranium oil and geraniol were tested on patients with post-herpetic neuralgia. A synthetic blend of geranium oil was tested in patients with post-herpetic neuralgia that were positive responders to natural geranium oil. […] Pure geraniol was then tested in these subjects.

post herpetic neuralgia = assay: Case study, post herpetic neuralgia, topical pure geraniol; format: in vivo, human; conditions: over 30 minutes after topical application; one subject
Description: person, Ht 68 inches, Weight 162 lb. BMI 24.7. History of shingles 4 years prior to study with residual pain (post herpetic neuralgia). The subject tried Neurontin™ (Pfizer, U.S.) for 1 week with only some help and quit 3-4 years prior to this study.
They had moderate pain that made it hard to concentrate on things other than the pain. […] They could sleep, but had to keep changing positions to do so. They described the post-herpetic neuralgia as the worst thing to have happened to […]. The subject's pain decreased by 78% with pure geraniol over the course of 30 minutes after topical application as measured on a standard visual analog scale.

Chain of delayed rectifier current (Ikv), specifically Ikv 1.5 subtype (P22460 whole entry): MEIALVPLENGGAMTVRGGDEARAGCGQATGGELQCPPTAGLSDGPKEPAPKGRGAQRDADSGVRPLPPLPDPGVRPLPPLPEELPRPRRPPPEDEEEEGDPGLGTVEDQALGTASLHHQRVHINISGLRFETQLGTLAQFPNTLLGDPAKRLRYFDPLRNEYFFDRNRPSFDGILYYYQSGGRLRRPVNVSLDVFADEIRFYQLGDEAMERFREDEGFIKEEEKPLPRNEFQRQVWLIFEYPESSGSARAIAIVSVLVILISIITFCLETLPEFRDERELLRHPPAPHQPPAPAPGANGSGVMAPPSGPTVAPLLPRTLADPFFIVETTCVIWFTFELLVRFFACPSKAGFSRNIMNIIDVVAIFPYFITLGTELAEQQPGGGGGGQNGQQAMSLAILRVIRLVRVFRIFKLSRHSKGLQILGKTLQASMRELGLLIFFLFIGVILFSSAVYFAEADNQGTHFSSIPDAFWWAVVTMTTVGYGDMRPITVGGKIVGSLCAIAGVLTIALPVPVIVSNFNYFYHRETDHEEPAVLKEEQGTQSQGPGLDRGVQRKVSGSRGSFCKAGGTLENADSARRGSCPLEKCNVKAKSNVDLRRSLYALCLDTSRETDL

Structure (SMILES)	inhibition of delayed rectifying potassium channels (in words) [1]	percent inhibition of the delayed rectifier potassium current [1] [%]	inhibition of nerve transmission (in words) [2]	inhibition of delayed rectifying potassium channels, comparison in words [1]	further results
C=C(C)C1CC=C(C)C(=O)C1 (centres unmarked) [carvone, Carvone]	positive	22			
CC(C)=CCCC(C)CCO (centres unmarked) [citronellol, 3,7-dimethyloct-6-en-1-ol]	positive	27	effectively inhibit nerve transmission	highest amount of inhibition; also recorded: highest activity	
C=CC(C)(O)CCC=C(C)C (centres unmarked) [linalool, Linalool]	positive	18			

Second part, led by results:

inhibition of delayed rectifying potassium channels (in words) [1]	percent inhibition of the delayed rectifier potassium current [1] [%]	Structure (SMILES)	inhibition of nerve transmission (in words) [2]	inhibition of delayed rectifying potassium channels, comparison in words [1]	further results
positive	26	CC(C)=CCC/C(C)=C/CO [geraniol, 2,6-Octadien-1-ol, 3,7-dimethyl-, (2E)-]	effectively inhibit nerve transmission	highest amount of inhibition; also recorded: highest activity	neuropathic pain relief (in words) (post-herpetic neuralgia): almost immediate pain relief; also recorded: greatest effect on neuropathic pain relief; decrease of pain on visual analog scale (post herpetic neuralgia): 78%; membrane currents, current-voltage relation (in words) [2]: reduction in the membrane current amplitude; also recorded: reduction of membrane currents; membrane currents, current-voltage relation (in words) ([2]; listed as geraniol (test compound #4)): reduction of membrane currents; membrane currents, current-voltage relation (in words) ([2]; listed as sample #4 (Geraniol)): reduction of membrane currents; net current reduction, rank among tested samples ([2]; most negative voltage step (−110 mV), FIG. 3): greatest inhibition; action potentials (in words) ([2]; voltage steps or depolarizing current pulse of 0.4 nA, FIG. 2): inhibition of action potential
positive	22	CC(C)[C@@H]1CC[C@@H](C)CC1=O [menthone, Menthone]			
positive	14	CC(C)=CC1CC(C)CCO1 (centres unmarked) [rose oxide, Rose Oxide]			
